Source: patent publication US7253155B2, “Combinations for the treatment of immunoinflammatory disorders” (CombinatoRx, Inc., priority 2001, dated 2007)
“And” between values parts separate entries of the source, which are not always exact repeats. Identical values can stand only once.

Tested on: TNFα secretion
Assay: TNFα ELISA assay for TNFα suppressing activity in PMA/ionomycin-stimulated human white blood cells (pairwise combination dilution matrix)
Format: cell-based
Procedure: Stock solutions at 16 mg/ml of dipyridamole, and 1.6 mg/ml of fludrocortisone acetate (Sigma-Aldrich, St. Louis, Mo.; catalog numbers D9766 and F6127, respectively) were made in dimethylsulfoxide (DMSO). The dipyridamole master plates were made by adding 25 μl of the concentrated stock solution to columns 3, 9, and 15 (rows C through N) of a polypropylene 384-well storage plate that had been pre-filled with 75 μl of anhydrous DMSO. Using a TomTec Quadra Plus liquid handler, the 25 μl of dipyridamole stock solution was serially diluted four times into the adjacent columns (columns 4-7, 10-13, 16-19). […] The fludrocortisone master plates were made by adding 25 μl of the concentrated stock solution to the appropriate wells (row C, columns 3-8; row C, columns 9-14; row C, columns 15-20; row I, columns 3-8; row I, columns 9-14; row I, columns 15-20) of the appropriate master polypropylene 384-well storage plate. These master plates had been pre-filled with 75 μl of anhydrous DMSO. Using the TomTec Quadra Plus liquid handler, the 25 μl was serially diluted four times in the adjacent rows (rows D-G, and J-M). […] Master plates were sealed and stored at −20 C. until ready for use.
The final dipyridamole/fludrocortisone combination plates were generated by transferring 1 μl from each of the dipyridamole and fludrocortisone master plates to a dilution plate containing 100 μl of media (RPMI; Gibco BRL, #11875-085), 10% Fetal Bovine Serum (Gibco BRL, #25140-097), 2% Penicillin/Streptomycin (Gibco BRL, #15140-122)) using the TomTec Quadra Plus liquid handler. This dilution plate was then mixed and a 10 μl aliquot transferred to the final assay plate, which had been pre-filled with 40 μl/well RPMI media containing the appropriate stimulant to activate TNFα secretion (see below).
The compound dilution matrix was assayed using a TNFα ELISA method. Briefly, a 100 μl suspension of diluted human white blood cells contained within each well of a polystyrene 384-well plate (NalgeNunc) was stimulated to secrete TNFα by treatment with a final concentration of 10 ng/ml phorbol 12-myristate 13-acetate (Sigma) and […] ionomycin (Sigma). Various concentrations of each test compound were added at the time of stimulation. After 16-18 hours of incubation at 37° C. in a humidified incubator, the plate was centrifuged and the supernatant transferred to a white opaque polystyrene 384 well plate (NalgeNunc, Maxisorb) coated with an anti-TNF antibody (PharMingen, #18631D). After a two-hour incubation, the plate was washed (Tecan PowerWasher 384) with phosphate buffered saline (PBS) containing 0.1% Tween 20 (polyoxyethylene sorbitan monolaurate) and incubated for an additional one hour with another anti-TNF antibody that was biotin labeled (PharMingen, 18642D) and horseradish peroxidase (HRP) coupled to strepavidin (PharMingen, #13047E). After the plate was washed with 0.1% Tween 20/PBS, the HRP substrate (which contains luminol, hydrogen peroxide, and an enhancer such as para-iodophenol) was added to each well and light intensity measured using a LJL Analyst luminometer. Control wells contained a final concentration of 1 μg/ml cyclosporin A (Sigma).
A compound matrix of dipyridamole and prednisolone were prepared according to the method of Example 1. The initial stock solution of dipyridamole was 16 mg/ml, and prednisolone was 1.6 mg/ml.
The compound dilution matrix of Example 3, was assayed using the TNFα ELISA method of Example 2.

## C[C@]12C=CC(=O)C=C1CC[C@@H]1[C@@H]2[C@@H](O)C[C@@]2(C)[C@H]1CC[C@]2(O)C(=O)CO [Prednisolone, 11beta,17alpha,21-trihydroxy-1,4-pregnadiene-3,20-dione]
Primary screen, prednisolone 0.001 μM, dipyridamole 0.00 μM
  % TNFα suppression from P/I-induced white blood cells: 4.86%
Primary screen, prednisolone 0.004 μM, dipyridamole 0.00 μM
  % TNFα suppression from P/I-induced white blood cells: 19.99%
Primary screen, prednisolone 0.016 μM, dipyridamole 0.00 μM
  % TNFα suppression from P/I-induced white blood cells: 37.84%
Primary screen, prednisolone 0.063 μM, dipyridamole 0.00 μM
  % TNFα suppression from P/I-induced white blood cells: 33.00%
Primary screen, prednisolone 0.250 μM, dipyridamole 0.00 μM
  % TNFα suppression from P/I-induced white blood cells: 38% and 38.25%

## OCCN(CCO)c1nc(N2CCCCC2)c2nc(N(CCO)CCO)nc(N3CCCCC3)c2n1 [Dipyridamole, 2,6-bis(diethanolamino)-4,8-dipiperidinopyrimido(5,4-d)pyrimidine]
Primary screen, fludrocortisone 0.000 μM, dipyridamole 0.031 μM
  % TNFα suppression from P/I-induced white blood cells: 3.68%
Primary screen, fludrocortisone 0.000 μM, dipyridamole 0.124 μM
  % TNFα suppression from P/I-induced white blood cells: 9.08%
Primary screen, fludrocortisone 0.000 μM, dipyridamole 0.495 μM
  % TNFα suppression from P/I-induced white blood cells: 13.21%
Primary screen, fludrocortisone 0.000 μM, dipyridamole 1.982 μM
  % TNFα suppression from P/I-induced white blood cells: 35.24%
Primary screen, fludrocortisone 0.000 μM, dipyridamole 7.927 μM
  % TNFα suppression from P/I-induced white blood cells: 66.37%
Primary screen, prednisolone 0.000 μM, dipyridamole 0.031 μM
  % TNFα suppression from P/I-induced white blood cells: 11.24%
Primary screen, prednisolone 0.000 μM, dipyridamole 0.12 μM
  % TNFα suppression from P/I-induced white blood cells: 12.63%
Primary screen, prednisolone 0.000 μM, dipyridamole 0.50 μM
  % TNFα suppression from P/I-induced white blood cells: 18.30%
Primary screen, prednisolone 0.000 μM, dipyridamole 1.98 μM
  % TNFα suppression from P/I-induced white blood cells: 27.21%
Primary screen, prednisolone 0.000 μM, dipyridamole 7.93 μM
  % TNFα suppression from P/I-induced white blood cells: 47.51%
Secondary screen, fludrocortisone 0.000 μM, dipyridamole 0.031 μM
  % TNFα suppression from P/I-induced white blood cells: 10.16%
Secondary screen, fludrocortisone 0.000 μM, dipyridamole 0.062 μM
  % TNFα suppression from P/I-induced white blood cells: 9.43%
Secondary screen, fludrocortisone 0.000 μM, dipyridamole 0.124 μM
  % TNFα suppression from P/I-induced white blood cells: 12.13%
Secondary screen, fludrocortisone 0.000 μM, dipyridamole 0.248 μM
  % TNFα suppression from P/I-induced white blood cells: 23.02%
Secondary screen, fludrocortisone 0.000 μM, dipyridamole 0.495 μM
  % TNFα suppression from P/I-induced white blood cells: 33.73%
Secondary screen, fludrocortisone 0.000 μM, dipyridamole 0.991 μM
  % TNFα suppression from P/I-induced white blood cells: 48.20%
Secondary screen, fludrocortisone 0.000 μM, dipyridamole 1.982 μM
  % TNFα suppression from P/I-induced white blood cells: 62.36%
Secondary screen, fludrocortisone 0.000 μM, dipyridamole 3.964 μM
  % TNFα suppression from P/I-induced white blood cells: 66.54%
Secondary screen, fludrocortisone 0.000 μM, dipyridamole 7.927 μM
  % TNFα suppression from P/I-induced white blood cells: 78.11%
